Results reported in US7714140B2, “1,2 Benzoisothiazole derivative, and agricultural or horticultural plant disease- controlling agent” (Kumiai Chemical Industry, Co. Ltd., priority 2006, dated 2010).

Columns and labels:
Pyricularia oryzae = assay type: in vivo; settings: paddy rice (Aichi Asahi), root treatment with wettable powder, active ingredient 30 g per 10 ares; inoculated 26 days after treatment; lesions counted 8 days after inoculation
[1] = system: Colletotrichum orbiculare; experiment: Test for preventive effect for cucumber anthracnose; settings: cucumber (Sagamihanjiro), soil drench 10 ml, inoculated 7 days later, lesions counted 7 days after
Description: Four cucumber seeds (variety: Sagamihanjiro) were sowed in a plastic cup of 5.5 cm in diameter, at a depth of 2 cm, and were grown in a greenhouse for 7 days. […] 10 ml of the dilution was poured into the soil at the root of young cucumber seedlings having cotyledons. 7 days later, a conidia suspension (10^5 to 10^6/ml) of Colletotrichum orbiculare which had been cultured in a PDA plate medium, was uniformly inoculated to the cucumber plant by hand spraying. The cup was allowed to stand in a moist chamber of 25° C. for 24 hours. Then, the cup was allowed to stand on a basin in a glass greenhouse and, 7 day later, the number of lesions of all cotyledons in pot was examined. A protective value was calculated from the expression 1 and evaluated according to the standard of Table 2.
Using a comparative compound shown below, a wettable powder was prepared according to Example 5. A control number thereof was calculated in the same manner as in the above Test Example.

[2] = concentration of active ingredient 1 ppm
[3] = concentration of active ingredient 10 ppm

| SMILES | Evaluation (protective value) (Pyricularia oryzae) | Evaluation (protective value) [1, 2] | Evaluation (protective value) [1, 3] | melting point [°C] |
| --- | --- | --- | --- | --- |
| C=CCOC1=NS(=O)(=O)c2ccccc21 [Probenazole, reference compound] | C (protective value: less than 80.0% to 50.0% or more) | – | – | – |
| O=S1(=O)N=C(OCc2ccncc2)c2ccccc21 [Comparative compound 1, reference compound] | C (protective value: less than 80.0% to 50.0% or more) | D (protective value: less than 50.0%) | B (protective value: less than 90.0% to 80.0% or more) | – |
| O=S1(=O)N=C(OCc2snc(Cl)c2Cl)c2ccccc21 [Compound No. 1, 3-(3,4-dichloroisothiazol-5-ylmethoxy)-1,2-benzoisothiazole 1,1-dioxide] | B (protective value: less than 90.0% to 80.0% or more) | A (protective value: 100% to 90.0% or more) | A (protective value: 100% to 90.0% or more) | – |
| Cc1cc(COC2=NS(=O)(=O)c3ccccc32)sn1 [compound 5, 3-(3-methylisothiazol-5-ylmethoxy)-1,2-benzoisothiazole 1,1-dioxide] | B (protective value: less than 90.0% to 80.0% or more) | D (protective value: less than 50.0%) | A (protective value: 100% to 90.0% or more) | 202 to 204 |
